ChEMBL document CHEMBL1134063, “Identification of a potent and selective oxytocin antagonist, from screening a fully encoded differential release combinatorial chemical library” (Bioorg Med Chem Lett, 2001)

Target: T1, Oxytocin receptor (Homo sapiens, UniProt P30559)
T1 sequence (P30559 whole entry): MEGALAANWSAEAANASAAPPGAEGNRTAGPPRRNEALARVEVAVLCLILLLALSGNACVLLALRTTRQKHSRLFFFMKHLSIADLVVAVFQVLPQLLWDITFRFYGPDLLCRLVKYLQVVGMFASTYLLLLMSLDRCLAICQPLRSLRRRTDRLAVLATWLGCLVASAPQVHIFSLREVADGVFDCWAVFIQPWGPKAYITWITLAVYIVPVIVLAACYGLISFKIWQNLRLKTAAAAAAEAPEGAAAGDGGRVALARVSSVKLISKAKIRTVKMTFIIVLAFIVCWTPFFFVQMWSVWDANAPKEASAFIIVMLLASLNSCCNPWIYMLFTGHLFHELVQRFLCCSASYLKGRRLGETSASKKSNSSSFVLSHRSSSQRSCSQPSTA
Assay: Inhibitory concentration required for antagonist activity against oxytocin receptor
Type: functional

Structure (SMILES)	IC50 [nM]
CC(=O)CCCC(=O)NC1N=C(c2ccccc2)c2ccccc2N(CC(=O)N[C@@H](Cc2ccc(Cl)c(Cl)c2)C(N)=O)C1=O (some centres not stated)	5
CC(=O)CCCC(=O)NC1N=C(c2ccccc2)c2ccccc2N(CC(=O)N[C@@H](Cc2cccs2)C(N)=O)C1=O (some centres not stated)	1
